The source of these data is publication PMC4168026 (BioMed Research International, 2014).

Values joined by “and” are separate entries in the source; they are usually repeats but may differ in a detail not shown here. Identical values can stand only once.

The target in assay [1] is T1, CA I (Homo sapiens, UniProt P00915).
T1 construct: five isoforms of human recombinant catalytic domains of carbonic anhydrases (CAs); made in house
The assay is described as follows: Fluorescent thermal shift assay (FTSA), CA I. Type of assay: binding. As to conditions: for Kd: FTSA; for energetic contribution (difference in ΔG of binding), CA I: against compound 2, from FTSA, pH 7.0, 37°C.

Assay [2] addresses T2, CA VII (Homo sapiens, UniProt P43166).
T2 construct: five isoforms of human recombinant catalytic domains of carbonic anhydrases (CAs); made in house
The assay is described as follows: Fluorescent thermal shift assay (FTSA), CA VII. It is filed as binding. As to conditions: for Kd: FTSA.

For assay [3], the target named is T3, CA XII (Homo sapiens, UniProt O43570).
T3 construct: five isoforms of human recombinant catalytic domains of carbonic anhydrases (CAs); made in house
T3 sequence (O43570 30-289 limits assumed): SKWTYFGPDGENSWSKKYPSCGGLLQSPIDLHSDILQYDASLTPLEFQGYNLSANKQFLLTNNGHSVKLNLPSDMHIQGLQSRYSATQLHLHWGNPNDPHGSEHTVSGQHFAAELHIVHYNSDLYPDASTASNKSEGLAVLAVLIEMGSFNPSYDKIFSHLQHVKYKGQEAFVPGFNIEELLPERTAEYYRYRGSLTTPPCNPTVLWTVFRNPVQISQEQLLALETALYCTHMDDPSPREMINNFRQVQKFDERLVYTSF
The assay is described as follows: Fluorescent thermal shift assay (FTSA), CA XII. It is filed as binding.

Assay [4] deals with T4, CA XIII (Homo sapiens, UniProt Q8N1Q1).
T4 construct: five isoforms of human recombinant catalytic domains of carbonic anhydrases (CAs); made in house
T4 sequence (Q8N1Q1 4-261 limits assumed): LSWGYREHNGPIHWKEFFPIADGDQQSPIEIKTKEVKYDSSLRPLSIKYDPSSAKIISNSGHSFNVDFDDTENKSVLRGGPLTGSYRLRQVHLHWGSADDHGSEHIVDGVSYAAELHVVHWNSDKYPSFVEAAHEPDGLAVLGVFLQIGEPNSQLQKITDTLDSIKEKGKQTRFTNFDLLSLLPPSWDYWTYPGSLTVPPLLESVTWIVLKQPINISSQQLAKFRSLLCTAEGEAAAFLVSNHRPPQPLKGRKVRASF
The assay is described as follows: Fluorescent thermal shift assay (FTSA), CA XIII. Type of assay: binding. As to conditions: for shift of the melting temperature Tm, CA XIII: compound added to 200 μM, pH 7.0.

Assay [5] concerns the target T1, CA I. Briefly: Isothermal titration calorimetry (ITC), CA I. Type of assay: binding. Background: Isothermal titration calorimetry measures the heat released or taken up as one component is titrated into another.
Assay [6] concerns the target T2, CA VII. The assay is described as follows: Isothermal titration calorimetry (ITC), CA VII. It is filed as binding.
In assay [7] the target is T3, CA XII. Briefly: Isothermal titration calorimetry (ITC), CA XII. It is filed as binding.
For assay [8], the target named is T4, CA XIII. The assay is described as follows: Isothermal titration calorimetry (ITC), CA XIII. It is filed as binding.
The target in assay [9] is CA VII. As to conditions: read-out: affinity, CA VII; inhibition method, literature value ref 5; cited from earlier work.
The target in assay [10] is T5, CA II (Homo sapiens, UniProt P00918).
T5 construct: five isoforms of human recombinant catalytic domains of carbonic anhydrases (CAs); made in house
The assay is described as follows: Fluorescent thermal shift assay (FTSA), CA II. It is filed as binding. As to conditions: 37°C, pH 7.0, read-out: Dissociation constants Kd, CA II.

For assay [11], the target named is T5, CA II. The assay is described as follows: Isothermal titration calorimetry (ITC), CA II. It is filed as binding.
Where [12] appears, read: 37°C, pH 7.0, read-out: Dissociation constants Kd, CA I.
Setting [13] is: 37°C, pH 7.0, read-out: Dissociation constants Kd, CA XIII.
[14] abbreviates: ITC, 37°C, pH 7.0, read-out: Dissociation constants Kd, CA I.
Setting [15] is: 37°C, pH 7.0, read-out: Dissociation constants Kd, CA VII.
[16] abbreviates: ITC, 37°C, pH 7.0, read-out: Dissociation constants Kd, CA XII.
[17] abbreviates: 37°C, pH 7.0, read-out: Dissociation constants Kd, CA XII.
Where [18] appears, read: ITC, 37°C, pH 7.0, read-out: Dissociation constants Kd, CA II.

T1 sequence (P00915 4-261 limits assumed): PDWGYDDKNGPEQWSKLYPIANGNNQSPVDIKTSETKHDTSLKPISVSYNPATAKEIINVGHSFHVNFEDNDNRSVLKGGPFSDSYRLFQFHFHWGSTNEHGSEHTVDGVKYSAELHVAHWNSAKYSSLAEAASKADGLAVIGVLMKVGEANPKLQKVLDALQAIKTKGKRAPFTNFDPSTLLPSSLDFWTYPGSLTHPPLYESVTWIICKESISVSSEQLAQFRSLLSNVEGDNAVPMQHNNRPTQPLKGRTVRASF
T2 sequence (P43166 5-262 limits assumed): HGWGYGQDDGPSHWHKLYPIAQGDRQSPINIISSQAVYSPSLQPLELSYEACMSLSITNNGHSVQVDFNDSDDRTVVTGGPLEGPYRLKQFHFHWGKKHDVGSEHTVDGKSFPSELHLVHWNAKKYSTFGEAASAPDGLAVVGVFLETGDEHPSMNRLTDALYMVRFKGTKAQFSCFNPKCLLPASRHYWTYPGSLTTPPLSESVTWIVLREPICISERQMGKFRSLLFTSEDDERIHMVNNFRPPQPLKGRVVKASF

Take `O=C1NS(=O)(=O)c2ccccc21` [Compound 1, saccharin, reference compound]: the Kd – broadly, the free concentration of one partner at which half of the binding sites on the other are occupied at equilibrium, for simple one-to-one binding – was > 10000 µM in assay [1] (setting [12]); > 10000 µM in assay [1] (no shift up to 7.5 mM, read-out: Kd, CA I); 1000 µM in assay [2] (read-out: Kd, CA VII); 5900 µM in [3] (read-out: Kd, CA XII); 2000 µM in [4] (setting [13]); 2000 µM in assay [4] (read-out: Kd, CA XIII). In addition, the Kd in [5] (setting [14]) is > 100000 nM; in [5] (ITC, all tested CAs, read-out: Kd, CA I), > 100000 nM; in assay [6] (setting [15]) it was > 100000 nM; in [6] (all tested CAs, read-out: Kd, CA VII) it was > 100000 nM; in assay [7] (setting [16]), > 100000 nM; in [7] (ITC, all tested CAs, read-out: Kd, CA XII) it was > 100000 nM. The Kd in assay [8] (setting [13]) was > 100000 nM; in assay [8] (all tested CAs, read-out: Kd, CA XIII), > 100000 nM. In addition, the “affinity weaker than the literature value, CA VII” value in [2] (FTSA Kd against 10 nM of ref 5) was 100,000 fold. In addition, the Ki in assay [9] is 10 nM.

For `CC#CCN1C(=O)c2ccc(S(N)(=O)=O)cc2S1(=O)=O` [Compound 3], the Kd in assay [1] (setting [12]) came out at 0.018 µM; in [10], 20 nM; in assay [2] (setting [15]), 0.11 µM; in assay [3] (setting [17]) it was 0.29 µM; in [4] (setting [13]), 0.045 µM; in assay [5] (setting [14]), 28 nM. Besides, the Kd in [11] (setting [18]) stood at 56 nM; in [6] (setting [15]) it was 160 nM; in [7] (setting [16]), 250 nM; in [8] (setting [13]), 47 nM. Further, the “energetic contribution (difference in ΔG of binding), CA I” value in assay [1] was -14.5 kJ/mol. In [4], the “shift of the melting temperature Tm, CA XIII” value is “significant”.

With `NS(=O)(=O)c1ccc2c(c1)S(=O)(=O)N(CCc1ccccc1)C2=O` [Compound 4], the Kd in assay [1] (read-out: affinity (Kd), CA I) was 0.00033 µM; in assay [10] it was 2.5 nM; in assay [2] (setting [15]), 0.0043 µM; in assay [3] (setting [17]), 0.025 µM; in [4] (setting [13]) it was 0.0067 µM; in assay [5] (setting [14]), < 20 nM. The Kd in assay [11] (setting [18]) was < 20 nM; in assay [6] (setting [15]), < 20 nM; in assay [7] (setting [16]), 40 nM; in assay [8] (setting [13]) it was < 20 nM. For the same compound, the “energetic contribution (difference in ΔG of binding), CA I” value in [1] is -24.8 kJ/mol. Moreover, the “shift of the melting temperature Tm, CA XIII” value in assay [4] is “significant”.

Regarding `NS(=O)(=O)c1ccc2c(c1)S(=O)(=O)NC2=O` [Compound 2], the Kd in assay [10] is 400 nM; in assay [3] (setting [17]) it was 0.22 µM; in assay [4] (setting [13]) it was ~0.2 µM and 0.2 µM; in [5], 1400 nM; in assay [11], 290 nM; in assay [7] it was 99 nM. Also, the Kd in assay [8] (setting [13]) turned out to be 120 nM.
